Assays:
JNK/p38MAPK signaling = test: Western blot of JNK and p38MAPK phosphorylation in Raw 264.7 cells; type: cell-based, mouse; details: 150 μM; TNF-α or LPS stimulation
Procedure: (§1) To determine whether the novel NBD mimetics target the NEMO-IKKβ interaction in vivo, co-immunoprecipitations were performed using extracts from Raw 264.7 macrophages (Fig 5A). […] No interaction between NEMO and TNF receptor-associated factor 2 (TRAF2) or IκBα was observed under these conditions. […] The levels of phosphorylated IKK complex, IκBα, and p65 in response to TNF-α and LPS were all reduced by SR12343 (Fig 5D & 5E). […] However, there were no changes in the levels of phospho-c-Jun N-terminal kinase (p-JNK), p-p38MAPK, total JNK, and p38MAPK by treatment with SR12343 (150 μM) in response to TNF-α or LPS stimulation (Fig 5G & 5H). […]
(§2) (A) Co-IP analysis detecting the IKKβ/NEMO interaction. […] NEMO-binding products were then analyzed for levels of IKKβ, IKKα, TRAF2, and IκBα (negative control), and levels of NEMO were used as a loading control (left panel). […] The levels of IKKβ-FLAG binding to GST-NEMO were determined by western blot analysis with GST-NEMO used as a loading control. […] Cell lysates were analyzed for activity of the IKK/NF-κB signaling pathway including activation of IKK complex, IκBα, and p65. […] Cell lysates were harvested and analyzed for activation of noncanonical NF-κB signaling, the processing of p100 to p52. […]

NEMO/IKKα interaction = target: T1, NEMO/IKKα interaction (Mus musculus, UniProt O88522); test: Co-immunoprecipitation of NEMO and IKKα in Raw 264.7 cells; type: cell-based; details: 0, 25, 50, 100, 150 μM, 30 min
T1 construct: Co-immunoprecipitation of endogenous IKKβ and NEMO; endogenous in cells; host or cells: Raw 264.7
T1 sequence (O88522 whole entry): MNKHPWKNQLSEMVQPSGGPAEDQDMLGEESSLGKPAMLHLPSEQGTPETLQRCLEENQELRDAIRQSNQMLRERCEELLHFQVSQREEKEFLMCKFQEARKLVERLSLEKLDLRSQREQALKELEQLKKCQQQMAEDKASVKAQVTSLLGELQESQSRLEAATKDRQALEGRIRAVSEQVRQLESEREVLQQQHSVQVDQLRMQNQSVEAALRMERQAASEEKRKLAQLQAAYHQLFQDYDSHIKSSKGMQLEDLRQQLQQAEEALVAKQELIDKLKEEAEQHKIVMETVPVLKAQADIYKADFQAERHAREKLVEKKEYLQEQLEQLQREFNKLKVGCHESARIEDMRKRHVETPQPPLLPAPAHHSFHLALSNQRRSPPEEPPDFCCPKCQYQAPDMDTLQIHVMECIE
Procedure: as §1, §2

Structure (SMILES): O=C(CNc1ccc(Cl)cn1)NCCc1cccc(Br)c1 [SR12343]
- Levels of p-JNK, p-p38MAPK, total JNK and p38MAPK (JNK/p38MAPK signaling): no changes
- NEMO/IKKα binding (Co-IP) (NEMO/IKKα interaction): only a marginal effect

Reference: paper PMC6013238, “Development of novel NEMO-binding domain mimetics for inhibiting IKK/NF-κB activation” (PLoS Biology, 2018)
